In patent US12473295B2, “Substituted straight chain spiro derivatives” (Janssen Pharmaceutica NV, priority 2019, dated 2025) one finds IC50 data, which are given here for 7 compounds.

As a reminder, the IC50 is the point on the concentration scale where inhibition reaches its midpoint.

The test system of test [1] is KO-52 cells. Kind of test: Proliferation assay (spheroid growth, 8 days), KO-52 control cell line. It is filed as cell-based, human. The note with it: Homo sapiens, […], read-out: spheroid assay_OneTime KO-52 IC50. In outline: (§1)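 Cells were seeded at 200 (MOLM14, OCI-AML3) or 300 (KO-52) per well in ultra-low attachment round-bottom plates with compounds at several concentrations, 0.3% DMSO, and grown 8 days at 37° C. Spheroid confluence was imaged on day 8; IC50 came from a variable-slope fit normalized to DMSO and high-dose reference compound.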

The target of test [2] is hERG (Homo sapiens (Human), UniProt Q12809). Kind of test: Effect on membrane potassium current IKr in hERG-transfected HEK293 cells, Protocol 2 (SyncroPatch 384PE). It is filed as cell-based. As to conditions: Protocol 2, hERG-transfected HEK293 cells. The procedure:
8) Effect on the Membrane Potassium Current IKr in hERG Transfected Cell Lines
The compound, vehicle control and positive control were tested on hERG-transfected HEK293 cells. A human embryonic kidney cell line (HEK293) with a stable transfection of hERG (Zhou Z et al. Biophysical Journal 1998. 74, 230-241; McDonald T. V. et al, Nature 1997. 388, 289-292) was used (University of Wisconsin, Madison, USA). The cells were kept in culture in MEM (Minimum Essential Medium, Gibco) which was supplemented with (amounts indicated added to 500 ml MEM): 5 ml L-Glutamine-Penicillin-Streptomycin (Sigma), 50 ml Fetal Bovine serum (Bio-Whittaker), 5 ml Non-essential Amino Acids 100× (Gibco), 5 ml sodium pyruvate 100 mM (Gibco) and 4 ml geneticin 50 mg/ml (Gibco) using T175 flasks. The cells were incubated at 37° C. in 5% CO2 atmosphere (in air).
Cell Harvesting for Assay
Cells were harvested as described below using Accumax™ (Sigma) as the dissociating reagent. Cells were then resuspended in a mixture of 33% DMEM/F12 (Dulbecco's Modified Eagle Medium/Nutrient Mixture F-12—Sigma) media/67% extracellular physiological solution.
The flasks were washed twice carefully with ˜5-10 ml phosphate buffered saline (PBS) (Gibco™) containing 2 mM EDTA (Ethylenediaminetetraacetic acid) (Sigma). The cells were dissociated using ˜3 ml of Accumax™ (cell detachment solution) and incubated for ˜5 to 10 min. at 37° C. Cold external physiological solution (2-5 ml) was added and the flasks are incubated at ˜4° C. for 5-10 min. Then, the cell suspension in each flask was gently dissociated with a 5 ml pipette. The cell suspension was transferred to a low binding petri-dish (˜[…]). Each flask was washed with ˜additional 5 ml cold external physiological solution and this solution was also added to the petri-dish. The petri-dish was then incubated for another 5 to 10 minutes at ˜4° C. After another gentle dissociation of the cell suspension in the petri dish, the cells were transferred to a reservoir kept on an orbital shaker at 200 rpm at 16° C. Before experiments were performed, the cells recovered for ˜20 min.
A 10 mM solution of the compound was used and plated in a 384 well plate. Aliquots of the stock solutions are diluted with the recording solution (see section 3) using automated liquid handling (Biomek FXP; final DMSO concentration: 0.03 to 0.3%). A standard range of screening concentrations was used ranging from 1 μM to 30 μM.
A positive control (E-4031) was included within each run to evaluate the sensitivity of the assay.
External and Intracellular Solutions Used in the Experiments
In the table below the composition of the intracellular and external buffer solutions is shown in [mM] (“NMDG” means N-methyl-D-glucamine)
The whole cell patch clamp technique on transfected cells allows the study of ion-channels with no—or limited interference from other ion-channels. The effects of the compounds on the hERG current were studied with an automated planar patch clamp system, SyncroPatch 384PE (Obergrussberger et al, Journal of Laboratory Automation 2016. 21 (6). 779-793). All cells were recorded in the whole cell mode of the patch clamp technique. The module is incorporated in a liquid handling pipetting robot system, Biomek FXP, for application of cells and compounds, vehicle control and positive control.
The different concentrations of the compounds were applied in two cumulatively increasing concentrations for the compounds (1 μM and 10 μM, and 3 μM and 30 μM, respectively). The hERG current was determined as the maximal tail current at −30 mV and percent inhibition upon compound or vehicle and positive control addition was reported.
After cells are caught onto the individual holes of the recording chips using the chip fill solution, the seal is increased with the seal enhancer solution (increased [Ca^2+]; then the cells were washed twice with recording solution before using a pressure protocol to go into the whole cell mode. […]

The test system of test [3] is MOLM14 cells. As to the kind of experiment: Proliferation assay (spheroid growth, 8 days), MOLM14.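 Further: spheroid size read as confluence by live-cell imaging, compounds added at a range of concentrations with 0.3% DMSO, DMSO-treated wells = 0%, highest reference dose = low control.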 The test is classed as cell-based, human. As to conditions: Homo sapiens, MOLM-14, […], MOLM14, 8 days; read-out: spheroid assay_OneTime MOLM14 IC50.
The subject of test [4] is OCI-AML3 cells. Kind of test: Proliferation assay (spheroid growth, 8 days), OCI-AML3. It is filed as cell-based, human. As to conditions: Homo sapiens, OCI-AML-3, […], OCI-AML3, 8 days. In outline:
as §1

Test [5] has as its target menin/MLL (terbium chelate-labeled menin, FITC-MBM1 peptide) (Homo sapiens (Human), UniProt O00255). As to the kind of experiment: Menin/MLL homogenous time-resolved fluorescence (HTRF) assay.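 Further: IC50 from percent inhibition of HTRF signal, normalized between wells without competitor and wells with a saturating competitor that displaces FITC-MBM1 from His-tagged menin.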 It is filed as binding. As to conditions: HTRF-30 min incubation IC50, 30 min incubation.
Test [6] relates to MEIS1 mRNA. Kind of test: MEIS1 mRNA expression assay (Quantigene Singleplex) in MOLM14 cells.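 Further: MEIS1 transcript levels read by probe hybridization and normalized to RPL28 mRNA, with IC50 fitted to fold changes across a rising compound concentration series.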 The note with it: Homo sapiens, MOLM-14, 48 h, 48 hours incubation. It is filed as cell-based, human.

Where a name gives a salt, the structure may show the parent alone.

Chain of menin/MLL (terbium chelate-labeled menin, FITC-MBM1 peptide) (O00255 other isoform, or with tags, fused parts or gaps): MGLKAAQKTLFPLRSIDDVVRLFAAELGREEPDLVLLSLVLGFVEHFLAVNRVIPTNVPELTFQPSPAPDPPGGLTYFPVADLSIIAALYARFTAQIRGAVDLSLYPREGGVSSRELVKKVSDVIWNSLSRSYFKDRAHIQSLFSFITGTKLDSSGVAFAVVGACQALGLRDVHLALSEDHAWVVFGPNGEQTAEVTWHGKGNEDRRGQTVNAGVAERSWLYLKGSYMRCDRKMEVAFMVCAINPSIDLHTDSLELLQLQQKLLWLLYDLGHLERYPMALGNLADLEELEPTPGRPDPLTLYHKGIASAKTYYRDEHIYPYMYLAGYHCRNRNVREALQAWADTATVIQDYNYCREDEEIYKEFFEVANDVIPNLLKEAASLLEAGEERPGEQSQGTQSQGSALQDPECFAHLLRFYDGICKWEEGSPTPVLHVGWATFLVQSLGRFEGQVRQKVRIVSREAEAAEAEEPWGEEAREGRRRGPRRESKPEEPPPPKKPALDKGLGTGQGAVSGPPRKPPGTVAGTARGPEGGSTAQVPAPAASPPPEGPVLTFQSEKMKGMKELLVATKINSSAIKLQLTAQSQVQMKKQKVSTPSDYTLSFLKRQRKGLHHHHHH
Chain of hERG (Q12809 whole entry): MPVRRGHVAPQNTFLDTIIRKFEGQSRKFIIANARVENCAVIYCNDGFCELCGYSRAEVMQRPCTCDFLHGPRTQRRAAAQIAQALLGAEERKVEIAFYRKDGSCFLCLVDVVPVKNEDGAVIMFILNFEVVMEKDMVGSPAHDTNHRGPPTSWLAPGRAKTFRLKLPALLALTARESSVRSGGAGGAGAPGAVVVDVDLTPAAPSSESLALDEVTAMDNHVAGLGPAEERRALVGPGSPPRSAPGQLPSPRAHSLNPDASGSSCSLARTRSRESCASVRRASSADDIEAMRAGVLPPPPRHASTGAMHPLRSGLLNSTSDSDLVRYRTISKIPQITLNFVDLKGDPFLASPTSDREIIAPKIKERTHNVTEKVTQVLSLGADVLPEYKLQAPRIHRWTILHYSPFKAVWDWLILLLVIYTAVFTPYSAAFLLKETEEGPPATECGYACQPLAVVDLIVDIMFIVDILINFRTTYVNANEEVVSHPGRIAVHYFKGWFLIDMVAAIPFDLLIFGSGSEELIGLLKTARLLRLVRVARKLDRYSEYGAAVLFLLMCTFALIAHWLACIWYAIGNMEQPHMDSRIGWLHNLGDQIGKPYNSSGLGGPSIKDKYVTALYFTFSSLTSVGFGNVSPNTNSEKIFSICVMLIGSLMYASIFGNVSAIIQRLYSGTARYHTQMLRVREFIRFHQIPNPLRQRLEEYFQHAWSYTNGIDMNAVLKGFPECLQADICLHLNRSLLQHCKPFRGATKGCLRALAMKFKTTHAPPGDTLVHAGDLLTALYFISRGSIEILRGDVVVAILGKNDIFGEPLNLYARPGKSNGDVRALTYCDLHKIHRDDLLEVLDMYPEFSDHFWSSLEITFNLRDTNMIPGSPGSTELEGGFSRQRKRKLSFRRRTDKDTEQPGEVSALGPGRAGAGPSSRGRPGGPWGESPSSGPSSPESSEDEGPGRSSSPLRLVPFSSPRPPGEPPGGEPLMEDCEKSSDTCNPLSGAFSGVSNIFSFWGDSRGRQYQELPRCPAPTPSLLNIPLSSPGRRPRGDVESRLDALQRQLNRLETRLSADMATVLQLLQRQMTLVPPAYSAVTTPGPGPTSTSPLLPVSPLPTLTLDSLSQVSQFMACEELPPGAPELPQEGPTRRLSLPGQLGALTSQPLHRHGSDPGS

In the case of `O=C(O)/C=C/C(=O)O.[2H]C([2H])(COC)N(C)CCC[C@H](C(C)C)N1CC2(CCN(c3ncnnc3Oc3ccc(F)cc3C(=O)N(CC)C(C)C)C2)C1` [Compound 233, (R)-N-ethyl-5-fluoro-N-isopropyl-2-((5-(2-(6-((2-methoxyethyl-1,1-d2)(methyl)amino)-2-methylhexan-3-yl)-2,6-diazaspiro[3.4]octan-6-yl)-1,2,4-triazin-6-yl)oxy)benzamide fumarate], the IC50 in test [1] is 5030 nM; in test [2], more than 30200 nM; in test [3], 26 nM; in test [4], 150 nM.
As for `CCN(C(=O)c1cc(F)ccc1Oc1nncnc1N1CCC2(C1)CN([C@H](CCCN(C)CCN(C)C(C)=O)C(C)C)C2)C(C)C` [Compound 148, (R)-N-ethyl-5-fluoro-N-isopropyl-2-((5-(2-(2-methyl-6-(methyl(2-(N-methylacetamido)ethyl)amino)hexan-3-yl)-2,6-diazaspiro[3.4]octan-6-yl)-1,2,4-triazin-6-yl)oxy)benzamide fumarate], the half-maximal inhibitory concentration (IC50) in test [1] was more than 15000 nM; in test [2] it was 12300 nM; in test [3], 41 nM; in test [4], 340 nM; in test [5], 0.35 nM; in test [6], 60 nM.
As to `CCN(C(=O)c1cc(F)ccc1Oc1nncnc1N1CCC2(C1)CN([C@H](C[C@H](C)CN(C)CCOC)C(C)C)C2)C(C)C` (single isomer, unassigned) [Compound 242], the IC50 in test [1] was more than 15000 nM; in test [2] it was more than 30200 nM; in test [3], 170 nM; in test [4], 1070 nM; in test [5] it was 0.26 nM; in test [6], 230 nM.
For `CCN(C(=O)c1cc(F)ccc1Oc1nncnc1N1CCC2(C1)CN([C@H](CCN(C)C)C(C)C)C2)C(C)C` (single isomer, unassigned) [Compound 223, (*R)-2-((5-(2-(1-(dimethylamino)-4-methylpentan-3-yl)-2,6-diazaspiro[3.4]octan-6-yl)-1,2,4-triazin-6-yl)oxy)-N-ethyl-5-fluoro-N-isopropylbenzamide fumarate], the IC50 in test [1] is more than 15000 nM; in test [2] it was more than 30200 nM; in test [3], 180 nM; in test [4] it was 990 nM; in test [5], 0.4 nM; in test [6] it was 200 nM.
Regarding `CCN(C)CCC[C@H](C(C)C)N1CC2(CCN(c3ncnnc3Oc3ccc(F)cc3C(=O)N(CC)C(C)C)C2)C1` (single isomer, unassigned) [Compound 132, (*R)—N-ethyl-2-((5-(2-(6-(ethyl(methyl)amino)-2-methylhexan-3-yl)-2,6-diazaspiro[3.4]octan-6-yl)-1,2,4-triazin-6-yl)oxy)-5-fluoro-N-isopropylbenzamide fumarate], the IC50 was 10400 nM in test [1]; more than 30200 nM in test [2]; 33 nM in test [3]; 190 nM in test [4]; 0.11 nM in test [5]; 15 nM in test [6].
Regarding `CC(C)[C@H](CCCN(C)CCC(=O)N(C)C)N1CC2(CCN(c3ncnnc3Oc3ccc(F)cc3C(=O)N(C(C)C)C(C)C)C2)C1` (single isomer, unassigned) [Compound 146, (*S)-2-((5-(2-(6-((3-(dimethylamino)-3-oxopropyl)(methyl)amino)-2-methylhexan-3-yl)-2,6-diazaspiro[3.4]octan-6-yl)-1,2,4-triazin-6-yl)oxy)-5-fluoro-N,N-diisopropylbenzamide fumarate], the IC50 in test [1] is more than 15000 nM; in test [2] it was more than 30200 nM; in test [3], 320 nM; in test [4] it was 1790 nM; in test [5], 0.081 nM; in test [6] it was 440 nM.
For `CCN(C(=O)c1cc(F)ccc1Oc1nncnc1N1CCC2(C1)CN([C@H](CCNCCOC)C(C)C)C2)C(C)C` (single isomer, unassigned) [Compound 227, (*R)—N-ethyl-5-fluoro-N-isopropyl-2-((5(2-(1-((2-methoxyethyl)amino)-4-methylpentan-3-yl)-2,6-diazaspiro[3.4]octan-6-yl)-1,2,4-triazin-6-yl)oxy)benzamide fumarate], the IC50 in test [1] was more than 15000 nM; in test [2], more than 30200 nM; in test [3], 46 nM; in test [4], 130 nM; in test [5], 0.15 nM; in test [6], 76 nM.
